Calls of active or inactive are those of the source. For most assays here, no stated cut-off is given here; in the data, actives have a measured EC50 and inactives only a lower limit.
How the values were obtained:
[1] = target: ATP-dependent molecular chaperone HSP82 (Candida albicans (strain WO-1) (Yeast), UniProt C4YTQ8); experiment: loss of DOC-induced GRE-beta-galactosidase reporter signal, dose response, Hsp90 inhibitor project, S. cerevisiae, luminescence (AID 2400); format: functional, cell-based;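 further: beta-galactosidase luminescence from glucocorticoid response element reporter as proxy for Hsp90 function; inhibitor potency where signal loss means Hsp90 inhibition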
[2] = C. albicans growth with fluconazole, confirmation, fluorescence, retest (AID 2467); format: functional, cell-based
Mucolipin-3 = target: T1, Mucolipin-3 (Homo sapiens, UniProt Q8TDD5); experiment: Dose response cell-based high-throughput screening assay for agonists of the transient receptor potential channel ML3 (TRPML3). [Related pubchem assays: 1526, 1424, 1448 ]; format: functional
T1 sequence (Q8TDD5 whole entry): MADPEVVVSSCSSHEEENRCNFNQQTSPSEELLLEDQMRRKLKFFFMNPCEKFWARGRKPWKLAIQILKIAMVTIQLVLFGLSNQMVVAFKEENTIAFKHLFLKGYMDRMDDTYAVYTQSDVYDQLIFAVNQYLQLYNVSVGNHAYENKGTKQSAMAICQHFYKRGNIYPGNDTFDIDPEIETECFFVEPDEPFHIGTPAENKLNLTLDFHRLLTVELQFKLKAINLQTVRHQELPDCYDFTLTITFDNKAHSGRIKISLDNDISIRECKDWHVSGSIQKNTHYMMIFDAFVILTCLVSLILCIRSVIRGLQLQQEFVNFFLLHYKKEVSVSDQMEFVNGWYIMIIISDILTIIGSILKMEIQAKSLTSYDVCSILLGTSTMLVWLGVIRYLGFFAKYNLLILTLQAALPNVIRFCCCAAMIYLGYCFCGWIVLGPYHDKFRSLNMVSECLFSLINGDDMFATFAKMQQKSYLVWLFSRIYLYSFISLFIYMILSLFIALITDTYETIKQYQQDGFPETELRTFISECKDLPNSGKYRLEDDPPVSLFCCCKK

Ion channel NompC = Ion channel NompC (Danio rerio, UniProt Q7T1G6); experiment: Fluorescence counterscreen assay for TRPML3 agonists: dose response cell-based high-throughput screening assay to identify agonists of the transient receptor potential channel N1 (TRPN1). [Related pubchem assays: 1526, 1424, 1448 ]; format: functional
[3] = target: Serine/threonine-protein phosphatase (Candida dubliniensis (strain CD36 / CBS 7987 / NCPF 3949 / NRRLY-17841) (Yeast), UniProt B9W6M3); experiment: calcineurin pathway inhibitors in yeast reporter, dose response, S. cerevisiae, CDRE-lacZ, luminescence, secondary (AID 2388); format: functional, cell-based;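 further: yeast reporter cells carrying a calcineurin-responsive lacZ construct stimulated with calcium chloride; luminescent beta-galactosidase reporter signal in whole cells rather than isolated phosphatase activity; potency for inhibition where a drop in reporter signal means calcineurin blockade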
[4] = NIH-3T3 fibroblast cytotoxicity, dose response, cytotoxicity control, cell-based, fluorescence, Alamar Blue, secondary assay (AID 2327); format: functional;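 further: NIH-3T3 mouse fibroblasts cultured with fluconazole at 8 µg/mL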
BJ = experiment: cytotoxicity toward Ras-transformed BJeLR fibroblasts, dose response, cell-based, alamar blue fluorescence, cherrypicked samples (AID 2631); format: functional; conditions: Homo sapiens;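 further: confirmatory dose-response assay in RAS-dependent BJ fibroblasts engineered with TERT, LT and ST, with cytotoxicity read by fluorescence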
[5] = inhibitors of SNCA 5'UTR-driven reporter translation, confirmation, H4 neuroglioma cells, luminescence (AID 1988); format: functional, cell-based
[6] = Luminescence Cell-Based Dose Response HTS to Identify Inhibitors of 5'UTR Stem-Loop Driven Prion Protein mRNA Translation in H4 Neuroglioblastoma Cells. [Related pubchem assays: 1827 (Project Summary), 1813 (Primary HTS)]; format: functional
[7] = inhibitors of firefly luciferase expression or activity, dose response, H4 neuroglioma cells, luminescence (AID 1990); format: functional, cell-based
[8] = target: Beta-2 adrenergic receptor (Homo sapiens, UniProt P07550); experiment: beta2AR agonists driving receptor internalization, dose response, cell-based, FAP fluorogen, flow cytometry, cherry pick 1 (AID 588763); format: functional
Chain of Beta-2 adrenergic receptor (P07550 whole entry): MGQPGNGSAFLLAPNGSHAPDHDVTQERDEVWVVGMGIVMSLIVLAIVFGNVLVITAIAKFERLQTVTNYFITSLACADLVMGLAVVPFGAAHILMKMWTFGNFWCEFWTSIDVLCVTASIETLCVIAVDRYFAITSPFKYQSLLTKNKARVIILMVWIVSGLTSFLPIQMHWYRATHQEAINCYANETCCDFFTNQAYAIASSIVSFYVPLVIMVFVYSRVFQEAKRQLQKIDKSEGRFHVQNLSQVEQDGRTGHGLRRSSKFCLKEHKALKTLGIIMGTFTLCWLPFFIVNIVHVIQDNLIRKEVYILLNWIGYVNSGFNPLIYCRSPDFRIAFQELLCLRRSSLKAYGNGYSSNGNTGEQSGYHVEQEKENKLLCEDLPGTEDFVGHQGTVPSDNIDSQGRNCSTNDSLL

Chain of Ion channel NompC (Q7T1G6 whole entry): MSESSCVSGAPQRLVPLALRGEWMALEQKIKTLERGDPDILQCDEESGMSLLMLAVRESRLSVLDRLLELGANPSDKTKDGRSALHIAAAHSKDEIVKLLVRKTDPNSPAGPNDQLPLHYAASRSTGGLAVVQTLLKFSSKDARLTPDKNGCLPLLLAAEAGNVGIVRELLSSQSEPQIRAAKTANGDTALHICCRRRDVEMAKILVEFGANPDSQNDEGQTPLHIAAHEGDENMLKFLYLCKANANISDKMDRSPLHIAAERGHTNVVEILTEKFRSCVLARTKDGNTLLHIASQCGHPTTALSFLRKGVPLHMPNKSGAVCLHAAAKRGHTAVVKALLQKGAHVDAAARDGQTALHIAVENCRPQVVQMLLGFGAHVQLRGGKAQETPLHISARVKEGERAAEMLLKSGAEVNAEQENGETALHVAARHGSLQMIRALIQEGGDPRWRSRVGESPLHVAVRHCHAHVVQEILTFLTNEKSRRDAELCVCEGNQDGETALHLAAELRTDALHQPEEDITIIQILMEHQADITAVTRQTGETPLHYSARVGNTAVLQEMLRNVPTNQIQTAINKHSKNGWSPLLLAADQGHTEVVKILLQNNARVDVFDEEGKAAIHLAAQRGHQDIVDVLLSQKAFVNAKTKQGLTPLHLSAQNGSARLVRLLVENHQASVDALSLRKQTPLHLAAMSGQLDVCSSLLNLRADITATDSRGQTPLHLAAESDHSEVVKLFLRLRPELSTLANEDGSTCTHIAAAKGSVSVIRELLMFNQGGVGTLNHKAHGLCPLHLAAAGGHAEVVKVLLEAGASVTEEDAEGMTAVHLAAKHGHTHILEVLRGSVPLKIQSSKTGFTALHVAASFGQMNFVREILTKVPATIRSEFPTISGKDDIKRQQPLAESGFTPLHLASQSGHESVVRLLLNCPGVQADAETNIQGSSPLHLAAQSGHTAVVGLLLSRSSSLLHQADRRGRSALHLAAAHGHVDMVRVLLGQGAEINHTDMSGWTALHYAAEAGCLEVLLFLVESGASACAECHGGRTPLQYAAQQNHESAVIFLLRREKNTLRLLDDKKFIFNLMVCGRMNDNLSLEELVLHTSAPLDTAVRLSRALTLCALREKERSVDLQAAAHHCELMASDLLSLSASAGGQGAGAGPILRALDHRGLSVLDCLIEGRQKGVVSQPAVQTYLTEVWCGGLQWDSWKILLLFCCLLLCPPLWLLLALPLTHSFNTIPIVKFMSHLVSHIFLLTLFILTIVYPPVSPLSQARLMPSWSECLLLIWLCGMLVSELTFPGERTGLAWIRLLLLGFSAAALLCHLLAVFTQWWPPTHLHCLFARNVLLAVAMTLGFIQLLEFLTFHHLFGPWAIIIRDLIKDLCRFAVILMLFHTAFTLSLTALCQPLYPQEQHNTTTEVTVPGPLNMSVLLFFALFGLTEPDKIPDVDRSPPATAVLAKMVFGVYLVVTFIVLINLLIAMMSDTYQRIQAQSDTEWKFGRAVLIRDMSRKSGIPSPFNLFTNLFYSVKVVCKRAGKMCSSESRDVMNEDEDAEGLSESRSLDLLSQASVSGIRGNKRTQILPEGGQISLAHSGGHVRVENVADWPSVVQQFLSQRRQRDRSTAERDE
Chain of Serine/threonine-protein phosphatase (B9W6M3 whole entry): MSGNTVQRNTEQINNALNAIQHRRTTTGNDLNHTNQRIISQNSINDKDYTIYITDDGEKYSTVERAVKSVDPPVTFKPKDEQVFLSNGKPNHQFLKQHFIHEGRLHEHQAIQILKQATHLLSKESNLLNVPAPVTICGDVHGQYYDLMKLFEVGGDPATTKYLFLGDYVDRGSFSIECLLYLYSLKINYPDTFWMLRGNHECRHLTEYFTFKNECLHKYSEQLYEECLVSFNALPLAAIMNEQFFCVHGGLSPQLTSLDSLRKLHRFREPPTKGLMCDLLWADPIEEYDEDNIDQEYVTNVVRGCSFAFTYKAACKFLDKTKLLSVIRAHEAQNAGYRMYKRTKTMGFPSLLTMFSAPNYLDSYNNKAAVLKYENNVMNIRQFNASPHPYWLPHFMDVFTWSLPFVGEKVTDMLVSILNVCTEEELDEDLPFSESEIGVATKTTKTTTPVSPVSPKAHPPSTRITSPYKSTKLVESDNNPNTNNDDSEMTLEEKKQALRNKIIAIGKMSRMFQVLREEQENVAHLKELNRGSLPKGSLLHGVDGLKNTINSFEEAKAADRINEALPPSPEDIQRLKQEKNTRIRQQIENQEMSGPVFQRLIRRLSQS
Chain of ATP-dependent molecular chaperone HSP82 (C4YTQ8 whole entry): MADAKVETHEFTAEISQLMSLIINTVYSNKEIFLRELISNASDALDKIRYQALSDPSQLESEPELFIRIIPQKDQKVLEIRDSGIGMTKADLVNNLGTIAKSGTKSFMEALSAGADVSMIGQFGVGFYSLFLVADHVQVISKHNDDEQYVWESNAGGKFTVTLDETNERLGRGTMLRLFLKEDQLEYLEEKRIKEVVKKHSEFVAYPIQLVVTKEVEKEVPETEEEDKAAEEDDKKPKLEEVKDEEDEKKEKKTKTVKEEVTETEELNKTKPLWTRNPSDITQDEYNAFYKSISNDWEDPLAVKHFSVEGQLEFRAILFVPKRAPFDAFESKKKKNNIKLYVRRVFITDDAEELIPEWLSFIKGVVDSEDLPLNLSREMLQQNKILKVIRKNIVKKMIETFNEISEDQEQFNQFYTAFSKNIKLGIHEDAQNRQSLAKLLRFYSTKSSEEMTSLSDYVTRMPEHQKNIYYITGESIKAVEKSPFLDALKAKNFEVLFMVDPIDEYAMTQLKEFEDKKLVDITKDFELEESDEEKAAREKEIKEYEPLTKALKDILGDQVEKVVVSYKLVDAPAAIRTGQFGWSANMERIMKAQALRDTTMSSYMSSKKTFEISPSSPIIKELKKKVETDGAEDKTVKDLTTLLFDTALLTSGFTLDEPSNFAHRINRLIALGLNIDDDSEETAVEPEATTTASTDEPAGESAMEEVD

In the case of `Cc1ccc(S(=O)(=O)N(C)c2ccc(OCC(=O)Nc3nnc(C4CC4)s3)cc2)cc1`, the EC50 [1] is reported as > 150 µM (inactive), the EC50 [2] is reported as 3.05 µM (active) and the EC50 (Mucolipin-3) is reported as 4.38 µM (active). The EC50 (Ion channel NompC) was > 29.9 µM (not active), the EC50 [3] was > 180 µM (inactive) and the EC50 [4] was > 150 µM (inactive).

For `COc1cccc(Cn2c(-c3nonc3N)nc3ccccc32)c1`, the EC50 (BJ) was 0.455 µM (active), the EC50 [5] was 2.69 µM (active) and the EC50 [6] was 24.7 µM (active). The EC50 [7] was 9.54 µM (active).

For `NC(=O)CC(NC(=O)c1ccccc1)c1ccc(NCCCN2CCCC2=O)c([N+](=O)[O-])c1` (stereo unspecified), the EC50 [8] was 1.4 µM (active).
